Source: ChEMBL document CHEMBL1201862, “PubChem BioAssay data set” (2004)
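How tested: cells in 96-well plates exposed to compound for 48 hours at five concentrations. Abbreviation: GI50, concentration required for 50% inhibition of growth.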 Activity calls are given as the source filed them. Rule as the data show it: active = GI50 up to about 1.1 µM and inactive = higher.

How the values were obtained:
Assay in all cases: inhibition of tumour cell growth, NCI panel, 48 h
SF-539 = test system: SF-539
MOLT-4 = test system: MOLT-4
K562 = test system: K562
SR = test system: SR
OVCAR-5 = test system: OVCAR-5
SK-MEL-5 = test system: SK-MEL-5
T47D = test system: T47D
NCI/ADR-RES = test system: NCI/ADR-RES
HT-29 = test system: HT-29
NCI-H460 = test system: NCI-H460
EKVX = test system: EKVX
OVCAR-8 = test system: OVCAR-8
M14 = test system: M14
SK-MEL-2 = test system: SK-MEL-2
HOP-62 = test system: HOP-62
SN12C = test system: SN12C
OVCAR-4 = test system: OVCAR-4
SF-295 = test system: SF-295
HOP-92 = test system: HOP-92

Measured: GI50

C#CCn1c(=O)c(C)cn(/C(=C/C(=O)OCC)C(=O)OCC)c1=O
inactive: SF-539 1.64 µM | MOLT-4 3.43 µM | K562 2.84 µM | SR 3.5 µM | OVCAR-5 3.64 µM | SK-MEL-5 11.7 µM | T47D 4.73 µM | NCI/ADR-RES 3.91 µM | HT-29 2.23 µM | NCI-H460 1.95 µM | EKVX 5.87 µM | OVCAR-8 2.49 µM | M14 2.92 µM | SK-MEL-2 13.2 µM | HOP-62 15.8 µM | SN12C 8.57 µM | OVCAR-4 6.28 µM | SF-295 18.5 µM | HOP-92 3.01 µM

CCOC(=O)/C=C/[C@H](O[Si](c1ccccc1)(c1ccccc1)c1ccccc1)C(C)(C)C
inactive: SF-539 > 31.6 µM | MOLT-4 14.1 µM | K562 7.78 µM | SR > 10 µM | OVCAR-5 > 10 µM | SK-MEL-5 10.2 µM | T47D 11.5 µM | NCI/ADR-RES 28.5 µM | HT-29 7.03 µM | NCI-H460 > 10 µM | EKVX > 31.6 µM | OVCAR-8 > 31.6 µM | M14 73.8 µM | SK-MEL-2 > 31.6 µM | HOP-62 > 31.6 µM | SN12C > 31.6 µM | OVCAR-4 > 31.6 µM | SF-295 > 31.6 µM | HOP-92 > 31.6 µM

CCN(CC)c1ccc(/C=C/C2=NN(c3cccc(S(=O)(=O)O)c3)C3(C2)C(Cl)C(=O)N3c2nc3ccccc3s2)cc1 (stereo unspecified)
inactive: SF-539 3.32 µM | MOLT-4 3.04 µM | K562 5.55 µM | SR 2.47 µM | OVCAR-5 23.1 µM | SK-MEL-5 6.71 µM | T47D 3.06 µM | NCI/ADR-RES 17.9 µM | HT-29 13.8 µM | NCI-H460 9.1 µM | EKVX 8.79 µM | OVCAR-8 8.99 µM | M14 12.4 µM | SK-MEL-2 12.5 µM | HOP-62 7.36 µM | SN12C 8.18 µM | OVCAR-4 4.89 µM | SF-295 13.3 µM | HOP-92 6.73 µM

CCN(CC)CC(O)c1ccc2ccc3ccccc3c2c1 (stereo unspecified)
inactive: SF-539 12.6 µM | MOLT-4 16.4 µM | K562 17 µM | SR 5.69 µM | OVCAR-5 13.6 µM | SK-MEL-5 13.9 µM | T47D 20 µM | NCI/ADR-RES 16.3 µM | HT-29 11.5 µM | NCI-H460 17.5 µM | EKVX 14.1 µM | OVCAR-8 16.7 µM | M14 16.3 µM | SK-MEL-2 16.1 µM | HOP-62 16.1 µM | SN12C 16.3 µM | OVCAR-4 17.4 µM | SF-295 15.2 µM | HOP-92 14.2 µM
